Structures can show the parent of a compound that is named as a salt.
test system: Aβ42 production in H4 cells stably transfected with APP751 containing the Swedish mutation (H4 APP751 SWE clone 8.20); assay: Cellular assay for inhibition of Aβ1-42 production (H4 APP751 SWE clone 8.20); assay type: cell-based; settings: H4 APP751 SWE clone 8.20 cells, 19 h incubation; Table 5A, 6-alkyl and 6-substituted phenyl thiazine examples
Experimental: Cellular Assays for Inhibition of Aβ1-40 and Aβ1-42 Production
H4 cells stably transfected with APP751 containing the Swedish mutation (H4 APP751 SWE clone 8.20, developed at BMS) were maintained in log phase through twice weekly passage at a 1:20 split. […] Following incubation for 19 h in 5% CO2 at 37° C., plates were briefly centrifuged (1000 rpm, 5 min). A 10 μl aliquot from each well was transferred to a second assay plate (Costar 3709) for Aβ40 measurements. Antibody cocktails were freshly prepared by dilution into 40 mM Tris-HCl (pH 7.4) with 0.2% BSA and added to assay plates. For Aβ42 measurements, antibodies specific for the Aβ42 neoepitope (565, developed at BMS; conjugated to the Wallac reagent (Perkin Elmer)) and the N-terminal sequence of Aβ peptide (26D6, developed at SIBIA; conjugated to APC (Perkin Elmer)) were mixed and 20 μl of the mixture was added to each well of the incubated cell plate yielding a final concentration of 0.8 ng/well 565 and 75 ng/well 26D6. For the Aβ40 measurements, antibodies specific for the Aβ40 neoepitope (TSD, developed at BMS; conjugated to the Wallac reagent (Perkin Elmer)) and 26D6 as described above were mixed and 20 μl of the mixture was added to the 10 μl aliquots which had been removed previously from the cell plate yielding a final concentration of 1.6 ng/well TSD and 17.5 ng/well 26D6. Assay plates containing antibodies were sealed with aluminum foil and incubated overnight at 4° C. Signal was determined using a Viewlux counter (Perkin Elmer) and IC50 values determined using curve fitting in CurveMaster (Excel Fit based).

Q: How did the IC50 turn out when `COc1ccccc1[C@@H]1C[C@@H](c2cccc(-c3cncnc3)c2)N=C(N)S1` (racemic) [Example 11, (±)-6-(2-methoxyphenyl)-4-(3-(pyrimidin-5-yl)phenyl)-5,6-dihydro-4H-1,3-thiazin-2-amine•TFA] was run?
A: 2400 nM

Q: How did the IC50 turn out when `COc1ccc([C@@H]2C[C@@H](c3cc(-c4cncnc4)c(F)cc3F)N=C(N)S2)cc1OC` (racemic) [Example 1, (±)-4-(2,4-difluoro-5-(pyrimidin-5-yl)phenyl)-6-(3,4-dimethoxyphenyl)-5,6-dihydro-4H-1,3-thiazin-2-amine] was run?
A: 1100 nM

Q: `NC1=N[C@H](c2cccc(-c3cncnc3)c2)C[C@@H](c2ccc(Cl)cc2)S1` (racemic) [Example 14, (±)-6-(4-chlorophenyl)-4-(3-(pyrimidin-5-yl)phenyl)-5,6-dihydro-4H-1,3-thiazin-2-amine•TFA] was tested. Which IC50 did it give?
A: 2700 nM

same assay, conditions: H4 APP751 SWE clone 8.20 cells, 19 h incubation; Table 5B, 6-heterocyclic thiazine examples

Q: For `Cc1noc(C)c1[C@@H]1C[C@@H](c2cc(-c3cccc(C#N)c3)cs2)N=C(N)S1` (racemic) [Example 35, 3-(5-((±)-2-amino-6-(3,5-dimethylisoxazol-4-yl)-5,6-dihydro-4H-1,3-thiazin-4-yl)thiophen-3-yl)benzonitrile], which IC50 is on record?
A: 300 nM

Q: With `NC1=N[C@H](c2cccc(-c3cncnc3)c2)C[C@@H](c2cccnc2)S1` (racemic) [Example 20, (±)-6-(pyridin-3-yl)-4-(3-(pyrimidin-5-yl)phenyl)-5,6-dihydro-4H-1,3-thiazin-2-amine•TFA] as the compound, how does the IC50 read?
A: 7800 nM

Q: Which IC50 does the source give for `Cc1nc(C)c([C@@H]2C[C@@](C)(c3cc(-c4cncnc4)c(F)cc3F)N=C(N)S2)s1` [Example 43, (4S,6S)-4-(2,4-difluoro-5-(pyrimidin-5-yl)phenyl)-6-(2,4-dimethylthiazol-5-yl)-4-methyl-5,6-dihydro-4H-1,3-thiazin-2-amine] here?
A: 210 nM

Q: With `Cc1nc([C@@H]2C[C@@](C)(c3cc(-c4cncnc4)c(F)cc3F)N=C(N)S2)c(C)o1` [Example 41, (4S,6S)-4-(2,4-difluoro-5-(pyrimidin-5-yl)phenyl)-6-(2,5-dimethyloxazol-4-yl)-4-methyl-5,6-dihydro-4H-1,3-thiazin-2-amine] as the compound, how does the IC50 read?
A: 233 nM

Q: How did the IC50 turn out when `Cc1ncsc1[C@@H]1C[C@@H](c2cccc(-c3cncnc3)c2)N=C(N)S1` (racemic) [Example 24, (±)-6-(4-methylthiazol-5-yl)-4-(3-(pyrimidin-5-yl)phenyl)-5,6-dihydro-4H-1,3-thiazin-2-amine•TFA] was run?
A: 1000 nM

Q: How did the IC50 turn out when `Cc1noc(C)c1[C@@H]1C[C@@H](c2cc(NC(=O)c3ccc(Cl)cn3)ccc2F)N=C(N)S1` (racemic) [Example 38, N-(3-((±)-2-amino-6-(3,5-dimethylisoxazol-4-yl)-5,6-dihydro-4H-1,3-thiazin-4-yl)-4-fluorophenyl)-5-chloropicolinamide•TFA] was run?
A: 11 nM

Q: Which IC50 does the source give for `Cc1nn(C)c(C)c1[C@@H]1C[C@@H](c2cccc(-c3cncnc3)c2)N=C(N)S1` (racemic) [Example 28, (±)-4-(3-(pyrimidin-5-yl)phenyl)-6-(1,3,5-trimethyl-1H-pyrazol-4-yl)-5,6-dihydro-4H-1,3-thiazin-2-amine•TFA] here?
A: > 30000 nM

Q: Which IC50 does the source give for `Cc1n[nH]c(C)c1[C@@H]1C[C@@H](c2cccc(-c3cncnc3)c2)N=C(N)S1` (racemic) [Example 18, (±)-6-(3,5-dimethyl-1H-pyrazol-4-yl)-4-(3-(pyrimidin-5-yl)phenyl)-5,6-dihydro-4H-1,3-thiazin-2-amine•TFA] here?
A: 7100 nM

Q: How did the IC50 turn out when `NC1=N[C@H](c2cccc(-c3cncnc3)c2)C[C@@H](c2ccccn2)S1` (racemic) [Example 22, (±)-6-(pyridin-2-yl)-4-(3-(pyrimidin-5-yl)phenyl)-5,6-dihydro-4H-1,3-thiazin-2-amine•TFA] was run?
A: 2000 nM

— patent US9475784B2, “4,6-diarylaminothiazines as BACE1 inhibitors and their use for the reduction of beta-amyloid production” (BRISTOL-MYERS SQUIBB COMPANY, priority 2012, dated 2016)
